Results: patent publication EP2931723B1, “NEW BICYCLIC COMPOUNDS AND THEIR USE AS ANTIBACTERIAL AGENTS AND -LACTAMASE INHIBITORS” (Fedora Pharmaceuticals Inc., priority 2012, dated 2014)

Tests used:
Experiment in all cases: MIC, antibacterial and synergistic activity
Format in all cases: cell-based
E. coli ATCC 25922 = E. coli ATCC 25922 (Wt)
A. baumanii JMI 2659 = A. baumanii JMI 2659 (Ges-14 (Cpase))
E.coli JMI 4103 = E.coli JMI 4103 (KPC-2, Tem-1, CMY-Type)
E. coli JMI 4080 = test system: E. coli JMI 4080
E. coli JMI 10768 [1] = settings: E. coli JMI 10768 (CTX-M15 (Weak ESBL))
Description: (§1) In the Tables 10 - 12, compounds herein disclosed were tested in combination with various antibiotics against metallo β-lactamase producing bacteria. Table 3: Synergy of the inhibitor Ex. 1 (4 µg/mL) in combination with antibiotics

E. coli JMI 2665 = test system: E. coli JMI 2665
Description: as §1

K. pneumo JMI 2673 [2] = settings: K. pneumo JMI 2673 (CTX-M14 (ESBL))
Procedure, shortened: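 Antibacterial synergy was assessed by testing a β-lactamase inhibitor compound in combination with antibiotics. The inhibitor was held at a fixed concentration of 4 µg/mL, and the minimum inhibitory concentration of the partner antibiotic was determined in its presence.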

K. pneumo JMI 2699 = K. pneumo JMI 2699 (VIM-1, CTX-M3)
Procedure, shortened: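 MICs were measured for antibiotics combined with the test inhibitor, held at a fixed 4 µg/mL, against metallo β-lactamase-producing clinical isolates.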

K. pneumo JMI 4088 [3] = settings: K. pneumo JMI 4088 (KPC-3 (Cpase))
Procedure, shortened: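 The compound was tested for synergy by combining it with antibiotics and measuring minimum inhibitory concentrations against β-lactamase producing bacteria. The inhibitor was present at a fixed concentration of 4 µg/mL together with the partner antibiotic, and MIC values were recorded.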

K.pneumo JMI 4109 [4] = settings: K.pneumo JMI 4109 (SHV-1, SHV-12)
Procedure, shortened: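 Antibacterial synergy was assessed by pairing each inhibitor compound, at a constant concentration of 4 µg/mL, with β-lactam antibiotics. The combinations were run against bacterial strains that produce β-lactamases, and the readout was the minimum inhibitory concentration of the antibiotic in the presence of the inhibitor.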

K. pneumo JMI 4106 = K. pneumo JMI 4106 (KPC-3, TEM-1, SHV-12, SHV-141)
E. coli JMI 2692 = E. coli JMI 2692 (NDM-1, TEM-1, CTX-M-15)
Description: (§2) In the Tables 10 - 12, compounds herein disclosed were tested in combination with various antibiotics against metallo β-lactamase producing bacteria.

K. pneumo JMI 2693 = K. pneumo JMI 2693 (NDM-1 (Cpase))
Description: as §2

K. pneumo JMI 2697 = K. pneumo JMI 2697 (IMP-4 (Cpase))
Description: as §2

K.pneumo JMI 4109 [5] = settings: K.pneumo JMI 4109 (SHV-1, SHV-12); substance alone
K. pneumo JMI 2673 [6] = settings: K. pneumo JMI 2673 (CTX-M14 (ESBL)); substance alone
K. pneumo JMI 2674 = K. pneumo JMI 2674 (CTX-M15 (ESBL)); substance alone
K. pneumo JMI 4088 [7] = settings: K. pneumo JMI 4088 (KPC-3 (Cpase)); substance alone
P. aerug JMI 2686 = P. aerug JMI 2686 (KPC-2 (Cpase)); substance alone
E. coli JMI 10767 = E. coli JMI 10767 (Wt)
E. coli JMI 10768 [8] = settings: E. coli JMI 10768 (CTX-M15 (Weak ESBL)); Meropenem + inhibitor at 4 µg/mL
E. coli JMI 11103 = test system: E. coli JMI 11103
[9] = Aztreonam + inhibitor at 4 µg/mL
[10] = Ceftazidime + inhibitor at 4 µg/mL
[11] = Meropenem + inhibitor at 4 µg/mL

NCCONC(=O)[C@@H]1CC[C@@H]2CN1C(=O)N2OS(=O)(=O)O [Ex. 3, (2S,5R)-N-(2-Aminoethoxy)-7-oxo-6-(sulfooxy)-1,6-diazabicyclo[3.2.1]octane-2-carboxamide]
MIC Aztreonam + inhibitor (E. coli ATCC 25922; [9]): ≤0.062 µg/mL
MIC Ceftazidime + inhibitor (E. coli ATCC 25922; [10]): ≤0.25 µg/mL
MIC Meropenem + inhibitor (E. coli ATCC 25922; [11]): ≤0.0312 µg/mL
MIC (E. coli ATCC 25922; Escherichia coli, ATCC25922, substance alone): 2 µg/mL
MIC Aztreonam + inhibitor (A. baumanii JMI 2659; [9]): >4 µg/mL
MIC Ceftazidime + inhibitor (A. baumanii JMI 2659; [10]): >16 µg/mL
MIC Meropenem + inhibitor (A. baumanii JMI 2659; [11]): 2 µg/mL
MIC (A. baumanii JMI 2659; Acinetobacter baumannii, JMI2659, substance alone, read-out: MIC): > 16 µg/mL
MIC Aztreonam + inhibitor (E.coli JMI 4103; [9]): ≤0.062 µg/mL
MIC Ceftazidime + inhibitor (E.coli JMI 4103; [10]): ≤0.25 µg/mL
MIC Meropenem + inhibitor (E.coli JMI 4103; [11]): ≤0.0312 µg/mL
MIC (E.coli JMI 4103; Escherichia coli, JMI4103, substance alone): 4 µg/mL
MIC Aztreonam + inhibitor (E. coli JMI 4080; E. coli JMI 4080 (Tem-10), Aztreonam + inhibitor at 4 µg/mL): ≤0.062 µg/mL
MIC Ceftazidime + inhibitor (E. coli JMI 4080; E. coli JMI 4080 (Tem-10), Ceftazidime + inhibitor at 4 µg/mL): ≤0.25 µg/mL
MIC Meropenem + inhibitor (E. coli JMI 4080; E. coli JMI 4080 (Tem-10), Meropenem + inhibitor at 4 µg/mL): ≤0.0312 µg/mL
MIC (E. coli JMI 4080; Escherichia coli, JMI4080, E. coli JMI 4080 (Tem-10), substance alone): 2 µg/mL
MIC Aztreonam + inhibitor (E. coli JMI 10768 [1]; [9]): ≤0.062 µg/mL
MIC Ceftazidime + inhibitor (E. coli JMI 10768 [1]; [10]): ≤0.25 µg/mL
MIC (E. coli JMI 10768 [1]; Escherichia coli, JMI10768, substance alone): 4 µg/mL
MIC Aztreonam + inhibitor (E. coli JMI 2665; E. coli JMI 2665 (CMY-2 (Plasmid Cpase)), Aztreonam + inhibitor at 4 µg/mL): ≤0.062 µg/mL
MIC Ceftazidime + inhibitor (E. coli JMI 2665; E. coli JMI 2665 (CMY-2 (Plasmid Cpase)), Ceftazidime + inhibitor at 4 µg/mL): ≤0.25 µg/mL
MIC (E. coli JMI 2665; Escherichia coli, JMI2665): 2 µg/mL
MIC Aztreonam + inhibitor (K. pneumo JMI 2673 [2]; [9]): 0.125 µg/mL
MIC Ceftazidime + inhibitor (K. pneumo JMI 2673 [2]; [10]): ≤0.25 µg/mL
MIC Meropenem + inhibitor (K. pneumo JMI 2673 [2]; [11]): ≤0.0312 µg/mL
MIC Aztreonam + inhibitor (K. pneumo JMI 2699; [9]): ≤0.062 µg/mL
MIC Ceftazidime + inhibitor (K. pneumo JMI 2699; [10]): ≤0.25 µg/mL
MIC Meropenem + inhibitor (K. pneumo JMI 2699; [11]): ≤0.0312 µg/mL
MIC (K. pneumo JMI 2699; substance alone, read-out: MIC): 4 µg/mL
MIC Aztreonam + inhibitor (K. pneumo JMI 4088 [3]; [9]): 1 µg/mL
MIC Ceftazidime + inhibitor (K. pneumo JMI 4088 [3]; [10]): ≤0.25 µg/mL
MIC Meropenem + inhibitor (K. pneumo JMI 4088 [3]; [11]): 0.25 µg/mL
MIC Aztreonam + inhibitor (K.pneumo JMI 4109 [4]; [9]): ≤0.062 µg/mL
MIC Ceftazidime + inhibitor (K.pneumo JMI 4109 [4]; [10]): ≤0.25 µg/mL
MIC Meropenem + inhibitor (K.pneumo JMI 4109 [4]; [11]): ≤0.0312 µg/mL
MIC Aztreonam + inhibitor (K. pneumo JMI 4106; [9]): ≤0.062 µg/mL
MIC Ceftazidime + inhibitor (K. pneumo JMI 4106; [10]): ≤0.25 µg/mL
MIC Meropenem + inhibitor (K. pneumo JMI 4106; [11]): ≤0.0312 µg/mL
MIC (K. pneumo JMI 4106; substance alone, read-out: MIC): 2 µg/mL
MIC Aztreonam + inhibitor (E. coli JMI 2692; [9]): ≤0.062 µg/mL
MIC Ceftazidime + inhibitor (E. coli JMI 2692; [10]): ≤0.25 µg/mL
MIC Meropenem + inhibitor (E. coli JMI 2692; [11]): ≤0.0312 µg/mL
MIC (E. coli JMI 2692; Escherichia coli, JMI2692, substance alone, read-out: MIC): 2 µg/mL
MIC Aztreonam + inhibitor (K. pneumo JMI 2693; [9]): 0.25 µg/mL
MIC Ceftazidime + inhibitor (K. pneumo JMI 2693; [10]): ≤0.25 µg/mL
MIC Meropenem + inhibitor (K. pneumo JMI 2693; [11]): ≤0.0312 µg/mL
MIC (K. pneumo JMI 2693; substance alone): 8 µg/mL
MIC Aztreonam + inhibitor (K. pneumo JMI 2697; [9]): 0.25 µg/mL
MIC Ceftazidime + inhibitor (K. pneumo JMI 2697; [10]): 0.5 µg/mL
MIC Meropenem + inhibitor (K. pneumo JMI 2697; [11]): 0.25 µg/mL
MIC (K. pneumo JMI 2697; substance alone): 8 µg/mL
MIC (K.pneumo JMI 4109 [5]): 2 µg/mL
MIC (K. pneumo JMI 2673 [6]): > 16 µg/mL
MIC (K. pneumo JMI 2674): > 16 µg/mL
MIC (K. pneumo JMI 4088 [7]): 2 µg/mL
MIC (P. aerug JMI 2686): > 16 µg/mL
MIC Meropenem + inhibitor (E. coli JMI 10767; [11]): ≤0.0312 µg/mL
MIC (E. coli JMI 10767; Escherichia coli, JMI10767, substance alone): 2 µg/mL
MIC Meropenem + inhibitor (E. coli JMI 10768 [8]): 0.062 µg/mL
MIC Aztreonam + inhibitor (E. coli JMI 11103; E. coli JMI 11103 (CTX-M15 (Intermediate ESBL)), Aztreonam + inhibitor at 4 µg/mL): 0.5 µg/mL
MIC Ceftazidime + inhibitor (E. coli JMI 11103; E. coli JMI 11103 (CTX-M15 (Intermediate ESBL)), Ceftazidime + inhibitor at 4 µg/mL): 0.5 µg/mL
MIC Meropenem + inhibitor (E. coli JMI 11103; E. coli JMI 11103 (CTX-M15 (Intermediate ESBL)), Meropenem + inhibitor at 4 µg/mL): 0.062 µg/mL
MIC (E. coli JMI 11103; Escherichia coli, JMI11103, E. coli JMI 11103 (CTX-M15 (Intermediate ESBL)), substance alone): 4 µg/mL
